{
  "source": "patent US6376242B1",
  "about": "“Methods and compositions for treating platelet-related disorders using MPL pathway inhibitory agents” (Emory University, priority 1999, dated 2002)",
  "origin": "cited, not measured here",
  "tested_on": "megakaryocyte cell line",
  "conditions": "in vitro",
  "data": [
    {"compound": "N#C/C(=C/c1ccc(O)c(O)c1)C(=O)NCc1ccccc1", "note": "[AG-490]", "values": [
      {"measurement": "inhibition of proliferation of a megakaryocyte cell line", "value": "inhibit proliferation of a megakaryocyte cell line in vitro"}
    ]}
  ]
}
